This passage reports inhibition results from patent publication US7851474B2, “Dipiperazinyl ketones and related analogues” (Neurogen Corporation, priority 2005, dated 2010).

For the assay, the target named is T1, chimeric human H3 receptor (Homo sapiens, UniProt Q9Y5N1, E19D).
T1 construct: made in house; host or cells: Sf9 insect cells (baculovirus infection); P2 membrane preparation
T1 sequence (Q9Y5N1 with tags, fused parts or gaps E19D): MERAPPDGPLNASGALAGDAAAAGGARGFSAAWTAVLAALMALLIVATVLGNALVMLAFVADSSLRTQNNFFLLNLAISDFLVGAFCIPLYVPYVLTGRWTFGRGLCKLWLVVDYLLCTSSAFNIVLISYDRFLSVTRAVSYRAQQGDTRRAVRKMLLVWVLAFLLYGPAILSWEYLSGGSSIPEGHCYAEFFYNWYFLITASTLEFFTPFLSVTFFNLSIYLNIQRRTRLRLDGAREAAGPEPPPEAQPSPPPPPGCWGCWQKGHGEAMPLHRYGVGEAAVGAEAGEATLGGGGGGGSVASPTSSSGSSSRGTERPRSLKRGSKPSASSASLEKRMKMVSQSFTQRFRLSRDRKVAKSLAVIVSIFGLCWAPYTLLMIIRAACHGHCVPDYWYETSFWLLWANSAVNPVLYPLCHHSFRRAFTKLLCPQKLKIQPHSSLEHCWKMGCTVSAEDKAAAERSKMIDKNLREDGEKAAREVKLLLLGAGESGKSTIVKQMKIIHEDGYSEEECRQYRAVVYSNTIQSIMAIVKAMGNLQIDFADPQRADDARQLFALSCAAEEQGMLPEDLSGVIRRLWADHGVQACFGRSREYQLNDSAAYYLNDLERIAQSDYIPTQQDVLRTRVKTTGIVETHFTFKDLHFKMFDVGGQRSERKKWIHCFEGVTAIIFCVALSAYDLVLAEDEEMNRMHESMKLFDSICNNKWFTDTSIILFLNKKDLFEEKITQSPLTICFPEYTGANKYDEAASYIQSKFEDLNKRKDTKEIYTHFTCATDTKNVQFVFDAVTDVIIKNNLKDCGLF
Kind of assay: Chimeric human H3 receptor screening GTP binding assay (inhibition of histamine-stimulated GTP-gamma35S binding, Example 8). The format is biochemical. To be noted: 1 h; assay described in Example 8; symbol + in column headed Ki of Table II; read-out: percent inhibition of agonist-induced GTP-gammaS binding to H3. Here is the method:
This Example illustrates a representative screening assay for evaluating inhibition of histamine-stimulated GTP-gamma^35S binding. Such GTP binding activity can be used to identify H3 antagonists and inverse agonists. A compound analyzed in this assay is referred to herein as a “test compound,” and the initial identification of antagonists and inverse agonists is performed using a test compound concentration of 4 μM.
Four independent baculoviral stocks (one directing the expression of the chimeric human H3 receptor and three directing the expression of each of the three subunits of a heterotrimeric G-protein) are used to infect a culture of Sf9 cells as described above. P2 membranes are prepared as described above, and are resuspended by Dounce homogenization (tight pestle) in GTP binding assay buffer (50 mM Tris pH 7.4, 120 mM NaCl, 5 mM MgCl2, 2 mM EGTA, 1 mg/ml BSA, 0.2 mg/ml bacitracin, 0.02 mg/ml aprotinin, 0.01 mg/ml saponin, 10 μM GDP) and added to assay tubes at a concentration of 35 μg protein/reaction tube. Non-radiolabeled test compounds are added to separate reactions at a concentration of 4 μM along with 1 μM histamine (agonist). Reactions are initiated by the addition of 125 pM GTP-gamma^35S with a final assay volume of 0.20 ml.
After a 60-min incubation at room temperature, reactions are terminated by vacuum filtration over GF/C filters (pre-soaked in 50 mM Tris pH 7.4, 120 mM NaCl plus 0.1% BSA) followed by washing with ice-cold buffer (50 mM Tris pH 7.4, 120 mM NaCl). The amount of receptor-bound (and thereby membrane-bound) GTP-gamma^35S is determined by measuring the bound radioactivity, preferably by liquid scintillation spectrometry of the washed filters. Non-specific binding is determined using 10 uM GTP-gammaS and typically represents less than 5 percent of total binding. After subtraction of non-specific binding, data is expressed as percent inhibition of 1 μM histamine signal.
Neutral antagonists are those test compounds that reduce the histamine-stimulated GTP binding activity towards, but not below, baseline levels. In contrast, in the absence of added histamine, inverse agonists reduce the GTP binding activity of the receptor-containing membranes below baseline. Any test compound that elevates GTP binding activity above baseline in the absence of added histamine in this assay is defined as having agonist activity.
Consider `O=C(CN1CCN(C(=O)c2cc3ccccc3s2)CC1)N1CCN(C2CCC2)CC1` [Compound 261, 1-(1-benzothien-2-ylcarbonyl)-4-[2-(4-cyclobutylpiperazin-1-yl)-2-oxoethyl]piperazine], for which the inhibition at 4 µM was more than 90%.

For the compound `O=C(CN1CCN(C(=O)c2ccccc2Cc2ccccc2)CC1)N1CCN(C2CCC2)CC1` [Compound 270, 1-(2-benzylbenzoyl)-4-[2-(4-cyclobutylpiperazin-1-yl)-2-oxoethyl]piperazine], the inhibition at 4 µM is more than 90%.

Consider `COc1ccc(Br)c(C(=O)N2CCN(CC(=O)N3CCN(C4CCC4)CC3)CC2)c1` [Compound 271, 1-(2-bromo-5-methoxybenzoyl)-4-[2-(4-cyclobutylpiperazin-1-yl)-2-oxoethyl]piperazine], for which the inhibition at 4 µM was more than 90%.

With `CCCCOc1ccccc1C(=O)N1CCN(CC(=O)N2CCN(C3CCC3)CC2)CC1` [Compound 272, 1-(2-butoxybenzoyl)-4-[2-(4-cyclobutylpiperazin-1-yl)-2-oxoethyl]piperazine], the inhibition at 4 µM is more than 90%.

As for `O=C(CN1CCN(C(=O)c2c(F)cccc2Cl)CC1)N1CCN(C2CCC2)CC1` [Compound 274, 1-(2-chloro-6-fluorobenzoyl)-4-[2-(4-cyclobutylpiperazin-1-yl)-2-oxoethyl]piperazine], the inhibition at 4 µM is more than 90%.

In the case of `COc1cc(C(=O)N2CCN(CC(=O)N3CCN(C4CCC4)CC3)CC2)cc(Cl)n1` [Compound 275, 1-(2-chloro-6-methoxyisonicotinoyl)-4-[2-(4-cyclobutylpiperazin-1-yl)-2-oxoethyl]piperazine], the inhibition at 4 µM is more than 90%.

`Cc1cc(C(=O)N2CCN(CC(=O)N3CCN(C4CCC4)CC3)CC2)cc(Cl)n1` [Compound 276, 1-(2-chloro-6-methylisonicotinoyl)-4-[2-(4-cyclobutylpiperazin-1-yl)-2-oxoethyl]piperazine]: the inhibition at 4 µM was more than 90%.

For `O=C(CN1CCN(C(=O)c2ccccc2Cl)CC1)N1CCN(C2CCC2)CC1` [Compound 277, 1-(2-chlorobenzoyl)-4-[2-(4-cyclobutylpiperazin-1-yl)-2-oxoethyl]piperazine], the inhibition at 4 µM is more than 90%.

For `O=C(CN1CCN(C(=O)c2ccnc(Cl)c2)CC1)N1CCN(C2CCC2)CC1` [Compound 279, 1-(2-chloroisonicotinoyl)-4-[2-(4-cyclobutylpiperazin-1-yl)-2-oxoethyl]piperazine], the inhibition at 4 µM is more than 90%.

In the case of `COc1ccc(Br)c(OC)c1C(=O)N1CCN(CC(=O)N2CCN(C3CCC3)CC2)CC1` [Compound 290, 1-(3-bromo-2,6-dimethoxybenzoyl)-4-[2-(4-cyclobutylpiperazin-1-yl)-2-oxoethyl]piperazine], the inhibition at 4 µM is more than 90%.

As to `O=C(CN1CCN(C(=O)c2ccc(F)c(Br)c2)CC1)N1CCN(C2CCC2)CC1` [Compound 291, 1-(3-bromo-4-fluorobenzoyl)-4-[2-(4-cyclobutylpiperazin-1-yl)-2-oxoethyl]piperazine], the inhibition at 4 µM is more than 90%.

In the case of `Cc1ccc(C(=O)N2CCN(CC(=O)N3CCN(C4CCC4)CC3)CC2)cc1Br` [Compound 292, 1-(3-bromo-4-methylbenzoyl)-4-[2-(4-cyclobutylpiperazin-1-yl)-2-oxoethyl]piperazine], the inhibition at 4 µM was more than 90%.

For the compound `COc1ccc(Cl)c(OC)c1C(=O)N1CCN(CC(=O)N2CCN(C3CCC3)CC2)CC1` [Compound 294, 1-(3-chloro-2,6-dimethoxybenzoyl)-4-[2-(4-cyclobutylpiperazin-1-yl)-2-oxoethyl]piperazine], the inhibition at 4 µM is more than 90%.

Take `O=C(CN1CCN(C(=O)c2ccc(F)c(Cl)c2)CC1)N1CCN(C2CCC2)CC1` [Compound 296, 1-(3-chloro-4-fluorobenzoyl)-4-[2-(4-cyclobutylpiperazin-1-yl)-2-oxoethyl]piperazine]: the inhibition at 4 µM is more than 90%.

In the case of `Cc1ccc(C(=O)N2CCN(CC(=O)N3CCN(C4CCC4)CC3)CC2)cc1Cl` [Compound 298, 1-(3-chloro-4-methylbenzoyl)-4-[2-(4-cyclobutylpiperazin-1-yl)-2-oxoethyl]piperazine], the inhibition at 4 µM was more than 90%.

Consider `O=C(CN1CCN(C(=O)c2cccc(Cl)c2)CC1)N1CCN(C2CCC2)CC1` [Compound 299, 1-(3-chlorobenzoyl)-4-[2-(4-cyclobutylpiperazin-1-yl)-2-oxoethyl]piperazine], for which the inhibition at 4 µM was more than 90%.

For the compound `CCCCOc1ccc(C(=O)N2CCN(CC(=O)N3CCN(C4CCC4)CC3)CC2)cc1` [Compound 340, 1-(4-butoxybenzoyl)-4-[2-(4-cyclobutylpiperazin-1-yl)-2-oxoethyl]piperazine], the inhibition at 4 µM was more than 90%.

For `COc1cc(Cl)ccc1C(=O)N1CCN(CC(=O)N2CCN(C3CCC3)CC2)CC1` [Compound 342, 1-(4-chloro-2-methoxybenzoyl)-4-[2-(4-cyclobutylpiperazin-1-yl)-2-oxoethyl]piperazine], the inhibition at 4 µM was more than 90%.

As for `Cc1cc(C(=O)N2CCN(CC(=O)N3CCN(C4CCC4)CC3)CC2)ccc1Cl` [Compound 348, 1-(4-chloro-3-methylbenzoyl)-4-[2-(4-cyclobutylpiperazin-1-yl)-2-oxoethyl]piperazine], the inhibition at 4 µM is more than 90%.

On to `O=C(CN1CCN(C(=O)c2ccc(Cl)cc2)CC1)N1CCN(C2CCC2)CC1` [Compound 354, 1-(4-chlorobenzoyl)-4-[2-(4-cyclobutylpiperazin-1-yl)-2-oxoethyl]piperazine], for which the inhibition at 4 µM is more than 90%.

Consider `COc1ccc(Cl)cc1C(=O)N1CCN(CC(=O)N2CCN(C3CCC3)CC2)CC1` [Compound 364, 1-(5-chloro-2-methoxybenzoyl)-4-[2-(4-cyclobutylpiperazin-1-yl)-2-oxoethyl]piperazine], for which the inhibition at 4 µM was more than 90%.

In the case of `O=C(CN1CCN(C(=O)c2ccccc2-c2ccccc2)CC1)N1CCN(C2CCC2)CC1` [Compound 374, 1-(biphenyl-2-ylcarbonyl)-4-[2-(4-cyclobutylpiperazin-1-yl)-2-oxoethyl]piperazine], the inhibition at 4 µM was more than 90%.

With `O=C(Cc1ccc(-c2ccccc2)cc1)N1CCN(CC(=O)N2CCN(C3CCC3)CC2)CC1` [Compound 375, 1-(biphenyl-4-ylacetyl)-4-[2-(4-cyclobutylpiperazin-1-yl)-2-oxoethyl]piperazine], the inhibition at 4 µM was more than 90%.

Consider `O=C(CN1CCN(C(=O)c2ccc(-c3ccccc3)cc2)CC1)N1CCN(C2CCC2)CC1` [Compound 376, 1-(biphenyl-4-ylcarbonyl)-4-[2-(4-cyclobutylpiperazin-1-yl)-2-oxoethyl]piperazine], for which the inhibition at 4 µM was more than 90%.

On to `Cc1cc(C(=O)N2CCN(CC(=O)N3CCN(C4CCC4)CC3)CC2)n(C(C)(C)C)n1` [Compound 377, 1-[(1-tert-butyl-3-methyl-1H-pyrazol-5-yl)carbonyl]-4-[2-(4-cyclobutylpiperazin-1-yl)-2-oxoethyl]piperazine], for which the inhibition at 4 µM is more than 90%.

For the compound `O=C(Cc1ccc(F)cc1Cl)N1CCN(CC(=O)N2CCN(C3CCC3)CC2)CC1` [Compound 381, 1-[(2-chloro-4-fluorophenyl)acetyl]-4-[2-(4-cyclobutylpiperazin-1-yl)-2-oxoethyl]piperazine], the inhibition at 4 µM was more than 90%.

`O=C(COc1ccccc1Cl)N1CCN(CC(=O)N2CCN(C3CCC3)CC2)CC1` [Compound 383, 1-[(2-chlorophenoxy)acetyl]-4-[2-(4-cyclobutylpiperazin-1-yl)-2-oxoethyl]piperazine]: the inhibition at 4 µM was more than 90%.

For the compound `O=C(Cc1ccccc1Cl)N1CCN(CC(=O)N2CCN(C3CCC3)CC2)CC1` [Compound 384, 1-[(2-chlorophenyl)acetyl]-4-[2-(4-cyclobutylpiperazin-1-yl)-2-oxoethyl]piperazine], the inhibition at 4 µM was more than 90%.

Take `O=C(/C=C/c1ccc2c(c1)OCO2)N1CCN(CC(=O)N2CCN(C3CCC3)CC2)CC1` [Compound 385, 1-[(2E)-3-(1,3-benzodioxol-5-yl)prop-2-enoyl]-4-[2-(4-cyclobutylpiperazin-1-yl)-2-oxoethyl]piperazine]: the inhibition at 4 µM is more than 90%.

`COc1cc(Br)c(/C=C/C(=O)N2CCN(CC(=O)N3CCN(C4CCC4)CC3)CC2)cc1OC` [Compound 386, 1-[(2E)-3-(2-bromo-4,5-dimethoxyphenyl)prop-2-enoyl]-4-[2-(4-cyclobutylpiperazin-1-yl)-2-oxoethyl]piperazine]: the inhibition at 4 µM was more than 90%.

As to `COc1ccc(/C=C/C(=O)N2CCN(CC(=O)N3CCN(C4CCC4)CC3)CC2)c(Cl)c1OC` [Compound 387, 1-[(2E)-3-(2-chloro-3,4-dimethoxyphenyl)prop-2-enoyl]-4-[2-(4-cyclobutylpiperazin-1-yl)-2-oxoethyl]piperazine], the inhibition at 4 µM was more than 90%.
